The structures appear in SMILES notation. Converted amounts (≈) assume the structure as drawn. Where two headings read alike, the source gives them in different places.

From US5773421A, “Antifungal fusacandins” (Abbott Laboratories, priority 1995, dated 1998) come the findings set out here.

What all share (experiment): MIC by agar dilution method
Common to all, as to type: cell-based
(In agar dilution, organisms are placed on agar that contains the substance at set levels.)

For one assay, the system named is Candida albicans CCH 442. As to conditions: CCH442; Table 6c, 3rd value column (head printed II); III Candida albicans CCH 442; agar dilution; read-out: MIC II. Here is the method: (§1) Minimal inhibitory concentrations (MICs) were determined by an agar dilution method. The test compounds were serially diluted in MeOH and 0.2 mL portions were mixed with 20 mL of molten, cooled Sabouraud dextrose agar (Difco). Yeast cell inoculum was prepared by growing cultures on Sabouraud dextrose agar for 18 hours at 32° C. and suspending the cells in phosphate buffered saline. Filamentous fungi were grown under the same conditions for 4 days to obtain spores. The inoculum level for all cultures was adjusted to 10^4 cells using a Petroff-Hauser cell counter. The glutarimide antifungal compounds cycloheximide or amphotericin B were used as a control. Inoculated test plates were incubated at 32° C. and examined after 20 hours.

In assay [1] the test system is Candida albicans ATCC 10231. Here is the method:
as §1

The test system of assay [2] is Candida albicans ATCC 38247. The protocol:
as §1

The next assay concerns Candida albicans 579a. Conditions: read-out: MIC II. Here is the method:
as §1

The subject of assay [3] is Candida albicans ATCC 62376. The protocol:
as §1

The mark [4] stands for this setting: Candida albicans, ATCC10231, read-out: MIC I.
Setting [5] is: Candida albicans, ATCC38247, read-out: MIC IV.
Where [6] appears, read: Candida albicans, ATCC62376, read-out: MIC V.
Where [7] appears, read: ATCC10231, Table 6c, I Candida albicans ATCC 10231, agar dilution, read-out: MIC I.
The mark [8] stands for this setting: ATCC38247, Table 6c, IV Candida albicans ATCC 38247, agar dilution, read-out: MIC IV.
Setting [9] is: Table 6c, II Candida albicans 579a, agar dilution.
Setting [10] is: ATCC62376, Table 6c, V Candida albicans ATCC 62376, agar dilution, read-out: MIC V.

The term MIC denotes the smallest concentration in the dilution series that meets the test's criterion for growth inhibition. Take `CCCCC/C=C/C=C/[C@@H](O)C/C=C/C=C/C(=O)O[C@@H]1[C@@H](O)[C@H](c2c(O)cc(O)cc2CO)O[C@H](CO)[C@H]1O[C@@H]1O[C@H](COC(=O)c2cc3ccccc3c3ccccc23)[C@H](O)[C@H](O)[C@H]1O[C@@H]1O[C@H](CO)[C@H](O)[C@H](O)[C@H]1O` [Example 27]: the MIC worked out at 3.12 µg/mL (≈ 2.9 µM) with Candida albicans CCH 442; 3.12 µg/mL (≈ 2.9 µM) in assay [1] (setting [4]); 6.25 µg/mL (≈ 5.8 µM) in assay [2] (setting [5]); 3.12 µg/mL (≈ 2.9 µM) in the assay on Candida albicans 579a (Candida albicans, 579A); 3.12 µg/mL (≈ 2.9 µM) in assay [3] (setting [6]).

Regarding `CCCCC/C=C/C=C/[C@@H](O)C/C=C/C=C/C(=O)O[C@@H]1[C@@H](O)[C@H](c2c(O)cc(O)cc2CO)O[C@H](CO)[C@H]1O[C@@H]1O[C@H](COC(=O)c2ccccc2)[C@H](O)[C@H](O)[C@H]1O[C@@H]1O[C@H](CO)[C@H](O)[C@H](O)[C@H]1O` [Example 14], the MIC in the assay on Candida albicans CCH 442 was found to be 12.5 µg/mL (≈ 12.8 µM); in assay [1] (setting [7]), 12.5 µg/mL (≈ 12.8 µM); in assay [2] (setting [8]), 6.25 µg/mL (≈ 6.4 µM); in the assay with Candida albicans 579a (setting [9]), 6.25 µg/mL (≈ 6.4 µM); in assay [3] (setting [10]), 12.5 µg/mL (≈ 12.8 µM).

On to `CCCCC/C=C/C=C/[C@@H](O)C/C=C/C=C/C(=O)O[C@@H]1[C@@H](O)[C@H](c2c(O)cc(O)cc2CO)O[C@H](CO)[C@H]1O[C@@H]1O[C@H](COC(=O)c2ccc3cc(OCc4ccccc4)ccc3c2)[C@H](O)[C@H](O)[C@H]1O[C@@H]1O[C@H](CO)[C@H](O)[C@H](O)[C@H]1O` [Example 24], for which the minimal inhibitory concentration (MIC) with Candida albicans CCH 442 stood at 25 µg/mL (≈ 22.1 µM); in assay [1] (setting [7]) it was 25 µg/mL (≈ 22.1 µM); in assay [2] (setting [8]), 50 µg/mL (≈ 44.1 µM); in the assay with Candida albicans 579a (setting [9]), 25 µg/mL (≈ 22.1 µM); in assay [3] (setting [10]), 25 µg/mL (≈ 22.1 µM).

For the compound `CCCCC/C=C/C=C/[C@@H](O)C/C=C/C=C/C(=O)O[C@@H]1[C@@H](O)[C@H](c2c(O)cc(O)cc2CO)O[C@H](CO)[C@H]1O[C@@H]1O[C@H](COC(=O)c2ccc(-c3ccc(CC)cc3)cc2)[C@H](O)[C@H](O)[C@H]1O[C@@H]1O[C@H](CO)[C@H](O)[C@H](O)[C@H]1O` [Example 21], the MIC was found to be 0.78 µg/mL (≈ 0.721 µM) in the assay on Candida albicans CCH 442; 0.78 µg/mL (≈ 0.721 µM) in assay [1] (setting [7]); 0.78 µg/mL (≈ 0.721 µM) in assay [2] (setting [8]); 0.2 µg/mL (≈ 0.185 µM) with Candida albicans 579a (setting [9]); 0.39 µg/mL (≈ 0.361 µM) in assay [3] (setting [10]).

Turning to `CCCCC/C=C/C=C/[C@@H](O)C/C=C/C=C/C(=O)O[C@@H]1[C@@H](O)[C@H](c2c(O)cc(O)cc2CO)O[C@H](CO)[C@H]1O[C@@H]1O[C@H](COC(=O)/C=C/c2cc(C(C)(C)C)cc(C(C)(C)C)c2)[C@H](O)[C@H](O)[C@H]1O[C@@H]1O[C@H](CO)[C@H](O)[C@H](O)[C@H]1O` [Example 17], the MIC in the assay with Candida albicans CCH 442 amounted to 3.12 µg/mL (≈ 2.8 µM); in assay [1] (setting [7]), 6.25 µg/mL (≈ 5.6 µM); in assay [2] (setting [8]) it was 3.12 µg/mL (≈ 2.8 µM); with Candida albicans 579a (setting [9]), 3.12 µg/mL (≈ 2.8 µM); in assay [3] (setting [10]), 6.25 µg/mL (≈ 5.6 µM).

As for `CCCCC/C=C/C=C/[C@@H](O)C/C=C/C=C/C(=O)O[C@@H]1[C@@H](O)[C@H](c2c(O)cc(O)cc2CO)O[C@H](CO)[C@H]1O[C@@H]1O[C@H](COC(=O)c2ccc(-c3ccccc3OC)cc2)[C@H](O)[C@H](O)[C@H]1O[C@@H]1O[C@H](CO)[C@H](O)[C@H](O)[C@H]1O` [Example 40], the minimal inhibitory concentration (MIC) in the assay with Candida albicans CCH 442 turned out to be 6.25 µg/mL (≈ 5.77 µM); in assay [1] (setting [7]), 6.25 µg/mL (≈ 5.77 µM); in assay [2] (setting [8]), 6.25 µg/mL (≈ 5.77 µM); in the assay on Candida albicans 579a (setting [9]) it was 1.56 µg/mL (≈ 1.44 µM); in assay [3] (setting [10]), 1.56 µg/mL (≈ 1.44 µM).

Consider `CCCCC/C=C/C=C/[C@@H](O)C/C=C/C=C/C(=O)O[C@@H]1[C@@H](O)[C@H](c2c(O)cc(O)cc2CO)O[C@H](CO)[C@H]1O[C@@H]1O[C@H](COC(=O)c2ccc(OCCCCCCCC)cc2)[C@H](O)[C@H](O)[C@H]1O[C@@H]1O[C@H](CO)[C@H](O)[C@H](O)[C@H]1O` [Example 18], for which the minimum inhibitory concentration (MIC) with Candida albicans CCH 442 amounted to 1.56 µg/mL (≈ 1.41 µM); in assay [1] (setting [7]), 3.12 µg/mL (≈ 2.82 µM); in assay [2] (setting [8]), 1.56 µg/mL (≈ 1.41 µM); in the assay on Candida albicans 579a (setting [9]) it was 1.56 µg/mL (≈ 1.41 µM); in assay [3] (setting [10]), 0.78 µg/mL (≈ 0.706 µM).

Turning to `CCCCC/C=C/C=C/[C@@H](O)C/C=C/C=C/C(=O)O[C@@H]1[C@@H](O)[C@H](c2c(O)cc(O)cc2CO)O[C@H](CO)[C@H]1O[C@@H]1O[C@H](COC(=O)Cc2ccc3ccccc3c2)[C@H](O)[C@H](O)[C@H]1O[C@@H]1O[C@H](CO)[C@H](O)[C@H](O)[C@H]1O` [Example 22], the MIC is 3.12 µg/mL (≈ 3 µM) in the assay with Candida albicans CCH 442; 6.25 µg/mL (≈ 6 µM) in assay [1] (setting [7]); 12.5 µg/mL (≈ 12 µM) in assay [2] (setting [8]); 3.12 µg/mL (≈ 3 µM) with Candida albicans 579a (setting [9]); 6.25 µg/mL (≈ 6 µM) in assay [3] (setting [10]).

In the case of `CCCCC/C=C/C=C/[C@@H](O)C/C=C/C=C/C(=O)O[C@@H]1[C@@H](O)[C@H](c2c(O)cc(O)cc2CO)O[C@H](CO)[C@H]1O[C@@H]1O[C@H](COC(=O)c2cccc(-c3ccc(OC)cc3)c2)[C@H](O)[C@H](O)[C@H]1O[C@@H]1O[C@H](CO)[C@H](O)[C@H](O)[C@H]1O` [Example 39], the minimum inhibitory concentration (MIC) in the assay on Candida albicans CCH 442 turned out to be 1.56 µg/mL (≈ 1.44 µM); in assay [1] (setting [7]) it was 1.56 µg/mL (≈ 1.44 µM); in assay [2] (setting [8]), 1.56 µg/mL (≈ 1.44 µM); in the assay on Candida albicans 579a (setting [9]) it was 0.78 µg/mL (≈ 0.72 µM); in assay [3] (setting [10]) it was 3.12 µg/mL (≈ 2.88 µM).

For the compound `CCCCC/C=C/C=C/[C@@H](O)C/C=C/C=C/C(=O)O[C@@H]1[C@@H](O)[C@H](c2c(O)cc(O)cc2CO)O[C@H](CO)[C@H]1O[C@@H]1O[C@H](COC(=O)c2ccc3ccc4ccccc4c3c2)[C@H](O)[C@H](O)[C@H]1O[C@@H]1O[C@H](CO)[C@H](O)[C@H](O)[C@H]1O` [Example 26], the MIC with Candida albicans CCH 442 is 1.56 µg/mL (≈ 1.45 µM); in assay [1] (setting [4]) it was 0.78 µg/mL (≈ 0.724 µM); in assay [2] (setting [5]) it was 1.56 µg/mL (≈ 1.45 µM); in the assay with Candida albicans 579a (Candida albicans, 579A) it was 0.78 µg/mL (≈ 0.724 µM); in assay [3] (setting [6]) it was 0.78 µg/mL (≈ 0.724 µM).

As to `CCCCC/C=C/C=C/[C@@H](O)C/C=C/C=C/C(=O)O[C@@H]1[C@@H](O)[C@H](c2c(O)cc(O)cc2CO)O[C@H](CO)[C@H]1O[C@@H]1O[C@H](COC(=O)c2ccc(-c3ccc(O)cc3)cc2)[C@H](O)[C@H](O)[C@H]1O[C@@H]1O[C@H](CO)[C@H](O)[C@H](O)[C@H]1O` [Example 41], the MIC in the assay with Candida albicans CCH 442 was found to be 6.25 µg/mL (≈ 5.85 µM); in assay [1] (setting [7]), 12.5 µg/mL (≈ 11.7 µM); in assay [2] (setting [8]), 6.25 µg/mL (≈ 5.85 µM); in the assay on Candida albicans 579a (setting [9]), 6.25 µg/mL (≈ 5.85 µM); in assay [3] (setting [10]), 12.5 µg/mL (≈ 11.7 µM).

Consider `CCCCC/C=C/C=C/[C@@H](O)C/C=C/C=C/C(=O)O[C@@H]1[C@@H](O)[C@H](c2c(O)cc(O)cc2CO)O[C@H](CO)[C@H]1O[C@@H]1O[C@H](COC(=O)c2cccc3ccccc23)[C@H](O)[C@H](O)[C@H]1O[C@@H]1O[C@H](CO)[C@H](O)[C@H](O)[C@H]1O` [Example 20], for which the MIC stood at 3.12 µg/mL (≈ 3.04 µM) in the assay with Candida albicans CCH 442; 3.12 µg/mL (≈ 3.04 µM) in assay [1] (setting [7]); 1.56 µg/mL (≈ 1.52 µM) in assay [2] (setting [8]); 3.12 µg/mL (≈ 3.04 µM) in the assay with Candida albicans 579a (setting [9]); 6.25 µg/mL (≈ 6.09 µM) in assay [3] (setting [10]).

For the compound `CCCCC/C=C/C=C/[C@@H](O)C/C=C/C=C/C(=O)O[C@@H]1[C@@H](O)[C@H](c2c(O)cc(O)cc2CO)O[C@H](CO)[C@H]1O[C@@H]1O[C@H](COC(=O)CCCCCCCCC)[C@H](O)[C@H](O)[C@H]1O[C@@H]1O[C@H](CO)[C@H](O)[C@H](O)[C@H]1O` [Example 13], the MIC with Candida albicans CCH 442 is 6.25 µg/mL (≈ 6.08 µM); in assay [1] (setting [7]), 12.5 µg/mL (≈ 12.2 µM); in assay [2] (setting [8]) it was 12.5 µg/mL (≈ 12.2 µM); with Candida albicans 579a (setting [9]) it was 12.5 µg/mL (≈ 12.2 µM); in assay [3] (setting [10]), 12.5 µg/mL (≈ 12.2 µM).

Regarding `CCCCC/C=C/C=C/[C@@H](O)C/C=C/C=C/C(=O)O[C@@H]1[C@@H](O)[C@H](c2c(O)cc(O)cc2CO)O[C@H](CO)[C@H]1O[C@@H]1O[C@H](COC(=O)c2ccc(-c3ccc(OCCC)cc3)cc2)[C@H](O)[C@H](O)[C@H]1O[C@@H]1O[C@H](CO)[C@H](O)[C@H](O)[C@H]1O` [Example 42], the MIC (in the assay on Candida albicans CCH 442; in assay [1] (setting [7]); in assay [2] (setting [8]); in the assay with Candida albicans 579a (setting [9]); in assay [3] (setting [10])) was 0.78 µg/mL (≈ 0.702 µM) in each case.
